The supplement of paper PMC8671470

Legend:
Test in all cases: cell viability (% survival relative to DMSO control, bortezomib = 0%); higher = less cytotoxic
Settings in all cases: 72 h
KU-812 = system: KU-812
Method in brief: (§1)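 Reported values are percent survival from duplicate wells, averaged. Fifteen myeloid leukaemia cell lines were treated in 384-well plates with compounds at 1, 10, 100, 1000 or 10000 nM for 72 h at 37 °C in 5% CO2. Signals from CellTiter-Glo luminescence were scaled with vehicle as 100% and a 10 µM positive control as 0%.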

KCL-22 = system: KCL-22
Method in brief: as §1

KG-1 = system: KG-1
Method in brief: as §1

THP-1 = system: THP-1
Method in brief: as §1

Row | SMILES | cell viability (KU-812; 1 nM) [%] | cell viability (KU-812; 10 nM) [%] | cell viability (KU-812; 100 nM) [%] | cell viability (KU-812; 1000 nM) [%] | cell viability (KU-812; 10000 nM) [%] | cell viability (KCL-22; 1 nM) [%] | cell viability (KCL-22; 10 nM) [%] | cell viability (KCL-22; 100 nM) [%] | cell viability (KCL-22; 1000 nM) [%] | cell viability (KCL-22; 10000 nM) [%] | cell viability (KG-1; 1 nM) [%] | cell viability (KG-1; 10 nM) [%] | cell viability (KG-1; 100 nM) [%] | cell viability (KG-1; 1000 nM) [%] | cell viability (KG-1; 10000 nM) [%] | cell viability (THP-1; 1 nM) [%] | cell viability (THP-1; 10 nM) [%] | cell viability (THP-1; 100 nM) [%] | cell viability (THP-1; 1000 nM) [%] | cell viability (THP-1; 10000 nM) [%]
1 | CC12CCC(O)CC1CCC1C2CCC2(C)C(C3=CC(=O)OC3)CCC12O (stereo not given) [Digitoxigenin] | 105 | 97.4 | 101 | 7.21 | 3.46 | 94.5 | 102 | 98.9 | 3.66 | -0.896 | 128 | 113 | 87.5 | 6.15 | -1.05 | 108 | 104 | 77 | 18.9 | -0.987
2 | C1CCc2nnc(C34CC5CC(CC(C5)C3)C4)n2CC1 [MERCK-544] | 97.6 | 95 | 86.9 | 78.7 | 97.9 | 99.2 | 106 | 95.8 | 106 | 116 | 101 | 106 | 98.5 | 95.2 | 105 | 102 | 107 | 93.7 | 102 | 91.1
3 | Cc1c(-c2ccccc2)oc2c(C(=O)OCCN3CCCCC3)cccc2c1=O.Cl [Flavoxate] | 92.2 | 110 | 111 | 99 | 99.2 | 94.6 | 93.2 | 102 | 95.6 | 87 | 94.7 | 108 | 94.8 | 97 | 106 | 93.5 | 97.7 | 93.5 | 96.6 | 109
4 | CCCc1nn(C)c2c(O)nc(-c3cc(S(=O)(=O)N4CCN(C)CC4)ccc3OCC)nc12 [Sildenafil] | 87.5 | 104 | 91.3 | 107 | 92.1 | 89.7 | 102 | 97.5 | 88.7 | 113 | 95.9 | 97 | 95.7 | 105 | 108 | 90.3 | 99.4 | 97.1 | 99.8 | 101
5 | C[C@]12CC[C@H](O)CC1=CC[C@@H]1[C@@H]2CC[C@]2(C)C(c3cccnc3)=CC[C@@H]12 [Abiraterone] | 88.8 | 94.8 | 101 | 108 | 101 | 99.6 | 92 | 111 | 112 | 87.2 | 115 | 101 | 94.3 | 101 | 91.8 | 99.4 | 102 | 104 | 113 | 108
6 | C#Cc1cnc(O)nc1O [Eniluracil] | 94.9 | 109 | 95.2 | 94.3 | 89.7 | 109 | 115 | 113 | 104 | 113 | 103 | 117 | 107 | 100 | 114 | 97.4 | 102 | 109 | 110 | 102
7 | Cc1coc2c1C(=O)C(=O)c1c-2ccc2c(C)cccc12 [Tanshinone I] | 105 | 104 | 101 | 106 | 89.2 | 125 | 100 | 108 | 111 | 59.5 | 113 | 99.9 | 98 | 99.3 | 77.6 | 109 | 102 | 98.9 | 103 | 90.1
8 | c1ccc2c(c1)OCC(=C1NCCN1)O2 [Idazoxan] | 105 | 108 | 96.5 | 91.8 | 105 | 105 | 104 | 78.6 | 91 | 87.4 | 104 | 112 | 93.6 | 96.4 | 85.9 | 104 | 107 | 83.3 | 91.4 | 103
9 | Clc1ccc2c(c1Cl)CNCC2 | 99.9 | 92.5 | 94.4 | 118 | 87.8 | 101 | 120 | 92.2 | 108 | 91.5 | 94.3 | 98.7 | 98.7 | 101 | 71.9 | 98.8 | 99.4 | 99.7 | 105 | 90.5
10 | CCOC(=O)[C@H]1O[C@@H]1C(=O)N[C@@H](CC(C)C)C(=O)NCCC(C)C [Aloxistatin] | 94 | 104 | 103 | 105 | 96.5 | 98.4 | 89.2 | 102 | 99.5 | 87.3 | 99.8 | 104 | 103 | 92.9 | 86.5 | 104 | 110 | 96.9 | 95.2 | 95.7
11 | Cc1noc2c1-c1ccccc1C(c1ccc(Cl)cc1)=N[C@H]2CC(N)=O [CPI-0610] | 97.2 | 99.8 | 73.1 | 36 | 4.66 | 123 | 94.6 | 91.3 | 49 | 27.7 | 100 | 93.9 | 62.6 | 21.5 | 12.7 | 103 | 95.9 | 88.6 | 51.1 | 40.2
12 | Sc1ncnc2nc[nH]c12 [6-mercaptopurine] | 98.9 | 100 | 93 | 59.3 | 54.4 | 92.6 | 89.7 | 105 | 52 | 8.81 | 112 | 103 | 93.4 | 97.9 | 89.4 | 98.3 | 106 | 98.1 | 90.6 | 85.2
13 | O=c1c2ccccc2[se]n1-c1ccccc1 [Ebselen] | 94.5 | 104 | 89.5 | 99.4 | 87.8 | 103 | 97.8 | 104 | 96.5 | 93.1 | 98.2 | 89.7 | 105 | 80.3 | 75.4 | 94.9 | 95.1 | 93 | 98.7 | 81.8
14 | CN(C/C=C/C#CC(C)(C)C)Cc1cccc2ccccc12 [Terbinafine] | 107 | 95.3 | 120 | 94.8 | 92.9 | 101 | 96.2 | 101 | 104 | 93.2 | 94.1 | 106 | 90.9 | 95.5 | 92.6 | 102 | 94.6 | 92 | 100 | 94.4
15 | OCCN1CCN(CCCN2c3ccccc3Sc3ccc(Cl)cc32)CC1 [Perphenazine] | 93.8 | 93.5 | 103 | 98 | 30 | 122 | 107 | 102 | 111 | 39.6 | 105 | 93 | 97.4 | 99.7 | 43.4 | 95.7 | 99.2 | 103 | 99.1 | 50.2
16 | O=C(c1ccc(OCCN2CCCCC2)cc1)c1c(-c2ccc(O)cc2)sc2cc(O)ccc12 [Raloxifene] | 97.1 | 95.8 | 95.3 | 93 | 70.6 | 93.9 | 92.7 | 100 | 94.5 | 75.8 | 102 | 90.6 | 92.1 | 96.5 | 75.1 | 94.5 | 97 | 96.5 | 105 | 93.5
17 | Cc1ccc(S(=O)(=O)NC2c3ccccc3Oc3ccccc32)cc1 [AH-7614] | 93.7 | 101 | 99.1 | 97.7 | 106 | 75.6 | 84 | 128 | 101 | 80.8 | 100 | 95.9 | 102 | 95.4 | 104 | 96.9 | 96.7 | 99 | 96.7 | 100
18 | C[C@]12O[C@H](C[C@]1(O)CO)n1c3ccccc3c3c4c(c5c6ccccc6n2c5c31)CNC4=O [Lestaurtinib] | 96 | 89.8 | 39.4 | 43.1 | 6 | 104 | 91 | 59.6 | 21.8 | 1.08 | 98.3 | 69.3 | 28 | 10.3 | 6.14 | 94.4 | 105 | 87.2 | 46 | 0.505
19 | O=C(O)C(S)=Cc1c[nH]c2ccc(F)cc12 | 102 | 103 | 101 | 112 | 102 | 111 | 94.6 | 102 | 112 | 101 | 101 | 95.1 | 106 | 101 | 66.3 | 99.1 | 97.6 | 98 | 113 | 101
20 | O=C(O)CC[C@H](NC(=O)c1ccc([N+](=O)[O-])cc1)C(=O)O [(S)-2-(4-Nitrobenzamido)pentanedioic acid] | 91.6 | 100 | 98.7 | 96.9 | 89.8 | 93.4 | 98.1 | 107 | 95.5 | 90.8 | 95.5 | 93.2 | 97.4 | 98.6 | 99.9 | 102 | 107 | 93.7 | 105 | 95.5
21 | CC(/C=C1\SC(=S)N(CC(=O)O)C1=O)=C\c1ccccc1 [Epalrestat] | 101 | 91.6 | 94.9 | 95.4 | 111 | 106 | 99.8 | 100 | 101 | 102 | 108 | 101 | 116 | 104 | 111 | 101 | 95.6 | 115 | 102 | 103
22 | O=C(O)CCc1ccc(NCc2cccc(Oc3ccccc3)c2)cc1 [GW9508] | 89.2 | 92.4 | 101 | 98.8 | 99.3 | 101 | 89.5 | 89.6 | 102 | 93.4 | 90.6 | 101 | 96.8 | 108 | 107 | 95.1 | 101 | 104 | 111 | 111
23 | O=P(O)(O)C(O)(Cn1ccnc1)P(=O)(O)O [Zoledronic acid] | 96.1 | 95.7 | 95.9 | 94.6 | 92.7 | 107 | 103 | 102 | 104 | 97.4 | 99.3 | 106 | 111 | 103 | 108 | 104 | 105 | 91.5 | 89.1 | 99.5
24 | COc1cc2c(NC3CCN(C)CC3)nc(N3CCCN(C)CC3)nc2cc1OCCCN(C)C [UNC0224] | 98.7 | 107 | 89.8 | 106 | 79.5 | 98.2 | 134 | 97.6 | 94.9 | 90.7 | 102 | 117 | 94.1 | 96.8 | 108 | 103 | 102 | 93.8 | 93 | 79.7
25 | C=CCc1ccc2c(c1O)C(=O)c1ccccc1C2=O [R162] | 98.5 | 89.9 | 95.1 | 125 | 92.1 | 100 | 98.3 | 101 | 96.6 | 96.7 | 85.5 | 98 | 107 | 109 | 114 | 101 | 99.1 | 102 | 109 | 109
26 | C1CCC(C(CC2CCCCN2)C2CCCCC2)CC1.O=C(O)/C=C\C(=O)O (stereo not given) [Perhexiline] | 96.3 | 85.1 | 94.9 | 99 | 8.47 | 92 | 79.3 | 94.3 | 101 | 1.14 | 91.9 | 85.2 | 100 | 95.6 | 0.46 | 101 | 93.8 | 100 | 89 | -0.129
27 | Nc1ccn([C@@H]2O[C@H](CO)[C@@H](O)[C@@H]2O)c(=O)n1 [Cytarabine] | 97 | 81.8 | 24.6 | 7.19 | 5.66 | 108 | 91.6 | 26.6 | 14.2 | 9.51 | 108 | 108 | 63.5 | 21.8 | 11.3 | 103 | 104 | 89.9 | 91.7 | 23.8
